# Reference: patent US4431662A, “1-(1,3-Benzodioxol-5-yl)-2-pyrrolidinone and its medicinal use” (priority 1981, dated 1984)
# Assays:
# [1] = Modified Trypsin Hyperalgesic Assay (THA) in the rat; format: in vivo
# Procedure: The analgesic agents were administered 30 minutes after the administration of trypsin. In addition, a modification of Vinegar's published assay was carried out, comprising the administration of the analgesic agent preceding subplantar injection of trypsin (0.10 ml of 10% solution of trypsin in pyrogen-free water) by 15 minutes. In both THA's, pain scores were determined 60 minutes after trypsin injection. The result of the modification was to increase the sensitivity of the THA to the mild analgesic action of the agents.
# There were usually 6 rats at each dose level and at least 3 dose levels were used.
# Rat Hot Plate Assay = format: in vivo; details: for Hot Plate Assay - Rat ED50, inactive: at 360 mg/kg; for ED50: po, 1 h, read-out: Hot Plate Assay - Rat ED50
# Source text: The rat hot plate assay incorporated 2 modifications of the mouse hot plate assay originally described by Eddy et al., J. Pharmacol. Exp. Ther. 98, 121-137 (1950). The first modification was enlargement of the diameter of the cylindrical (water filled) copper plate to 25.0 cm to accommodate rats instead of mice. The second modification was the use of a temperature controller to regulate a 250 watt infrared heat lamp which was activated via a thermistor probe attached to the undersurface of the top of the copper plate. The surface temperature was thus maintained at 45±1.0° C. (N=28 measurements of the plate temperature under experimental conditions). The time in which a rat placed on the hotplate responded by lifting, shaking or licking either of its hind or forelimbs was recorded in tenths of a second. Only animals responding in pretest within 6-13 seconds were used in the studies. Drugs were suspended in 0.5% sodium carboxymethylcellulose and administered orally, by gavage, in a volume of 1.00 ml/100 g.b. wt. 60 min prior to testing. […] The reaction time of 18.3 seconds represented the sum of the mean pretest times of 40 untreated rats plus the time of 3 standard deviations of the mean. ED50 's and their standard errors were estimated from a graph of the dose-response curves using the method of Miller and Tainter (Proc. Soc. Exp. Biol. Med. 57, 261-262 (1944). Following this procedure the analgesic activity of the compound (I) was compared to that of standard analgesic drugs (Table III).
# *Duration of Action in Rat Hot Plate assay represents the time in hrs to
# reduce 1.5 times the hot plate ED50 to 40% inhibition.
# [2] = Yeast-Induced Hyperthermia Assay, antipyretic activity; format: in vivo; details: rat; for ED50: po; for antipyretic activity (in words): yeast-induced hyperthermia assay
# Source text: The Yeast-Induced Hyperthermia Assay was used according to the procedure described by Khalili-Varasteh et al. in Arch. Int. Pharmacodyn.
# [3] = Acetic Acid Writhing Test (AAWT) in the rat; format: in vivo; details: po, read-out: ED50 (Acetic Acid Writhing Assay in the Rat)
# Source text: Using the procedure described by Koster et al. in Fed. Proc. 18, 412 (1959) and Vinegar et al. in Handbook of Experimental Pharmcology, 50-2, ch.
# [4] = Carrageenin Pleurisy Assay (CPA), acute anti-inflammatory activity; format: in vivo, rat
# Procedure: Following the procedure described by Vinegar et al. in Proc. Soc. Exp. Biol. Med. 151, 556, (1976), the acute anti-inflammatory activity of the compound (I) was compared with that of known anti-inflammatory drugs in the rat. The average 3 hour exudate volume for each drug-treated group was determined and the % inhibition relative to solvent-fed control animals calculated, the ED50 being the dose required to reduce the 3 hour exudate volume by 50%.
# morphine receptor = test: binding to the morphine receptor
# [5] = analgesic activity, assay not given (including inhibition by naloxone); format: in vivo
# [6] = po, 1 h, rat, p.o., 6.0 kg Force, agent given 15 minutes before trypsin, pain scores 60 minutes after trypsin, read-out: ED50, 6.0 kg Force (Modified Trypsin Hyperalgesic Assay)
# [7] = rat, p.o., 60 min prior to testing, plate 45±1.0° C.
smiles,measurement,setting,value
CC(=O)Nc1ccc(O)cc1 [Acetaminophen],ED50,[1]; [6],95 ± 17.2 mg/kg
same,ED50 at 200 mg/kg,"[1]; po, rat, p.o., 7.5 kg Force, @ 200 mg/kg, read-out: ED50, 7.5 kg Force (Modified Trypsin Hyperalgesic Assay), inactive",> 200 mg/kg
same,"Hot Plate Assay - Rat ED50, inactive","Rat Hot Plate Assay; rat, p.o.",Inactive
same,ED50,[2],72 ± 8.6 mg/kg
same,antipyretic activity (in words),[2],combats fever in the rat
CC(=O)Oc1ccccc1C(=O)O [Aspirin],ED50,[3]; Rattus norvegicus,21 ± 3.4 mg/kg
same,ED50,"[1]; Rattus norvegicus, po, read-out: ED50, 6.0 kg Force (Modified Trypsin Hyperalgesic Assay), inactive",> 180 mg/kg
same,"Hot Plate Assay - Rat ED50, inactive","Rat Hot Plate Assay; rat, p.o.",Inactive
same,ED50,[2],50 ± 8.1 mg/kg
same,antipyretic activity (in words),[2],combats fever in the rat
COc1ccc2c3c1O[C@H]1[C@@H](O)C=C[C@H]4[C@@H](C2)N(C)CC[C@@]341 [Codeine Phosphate],ED50,[3]; Rattus norvegicus,30 ± 2.7 mg/kg
same,ED50,"[1]; Rattus norvegicus, po, 1 h, read-out: ED50, 6.0 kg Force (Modified Trypsin Hyperalgesic Assay)",10 ± 1.7 mg/kg
same,ED50,"[1]; Rattus norvegicus, po, 1 h, read-out: ED50, 7.5 kg Force (Modified Trypsin Hyperalgesic Assay)",8.8 ± 2.77 mg/kg
COc1ccc2c3c1O[C@H]1[C@@H](O)C=C[C@H]4[C@@H](C2)N(C)CC[C@@]341 [Codeine],ED50,Rat Hot Plate Assay; [7],57 ± 35.3 mg/kg
same,Hot plate Duration of Action (time to reduce 1.5 times the hot plate ED50 to 40% inhibition),"Rat Hot Plate Assay; rat, p.o., dose 90 mg/kg",3.3 h
"O=C1CCCN1c1ccc2c(c1)OCO2 [Compound I, 1-(1,3-benzodioxol-5-yl)-2-pyrrolidinone]",ED50,"[3]; rat, p.o.",36 ± 7.1 mg/kg
same,ED50,[1]; [6],24 ± 5.3 mg/kg
same,ED50,"[1]; po, 1 h, rat, p.o., 7.5 kg Force, agent given 15 minutes before trypsin, pain scores 60 minutes after trypsin, read-out: ED50, 7.5 kg Force (Modified Trypsin Hyperalgesic Assay)",23 ± 3.5 mg/kg
same,analgesic activity compared with known analgesics in the trypsin assay (in words),"[1]; trypsin assay, versus acetaminophen, aspirin, zomepirac, codeine, morphine",superior to acetaminophen and the prostaglandin synthetase inhibitors such as aspirin and zomepirac as shown in the trypsin assay but less active than the opiates such as codeine or morphine
same,ED50,Rat Hot Plate Assay; [7],86 ± 16.5 mg/kg
same,Hot plate Duration of Action (time to reduce 1.5 times the hot plate ED50 to 40% inhibition),"Rat Hot Plate Assay; rat, p.o., dose 120 mg/kg",5.0 h
same,duration of analgesic action (in words),"Rat Hot Plate Assay; versus codeine or morphine, assay not given",significantly greater for compound (I) than for codeine or morphine
same,ED50,"[4]; po, 3 h, rat, p.o., relative to solvent-fed control animals, read-out: ED50, dose required to reduce the 3 hour exudate volume by 50% (CPA)",48 ± 10.5 mg/kg
same,acute anti-inflammatory activity (in words),"[4]; rat, carrageenan pleurisy assay","potent, long-lasting acute anti-inflammatory activity"
same,acute anti-inflammatory action compared with acetaminophen (in words),[4]; versus acetaminophen at comparable dose levels,more potent and to have a longer-lasting anti-inflammatory effect at comparable dose levels
same,ED50,[2],67 ± 4.2 mg/kg
same,antipyretic activity (in words),[2],antipyretic activity
same,binding to the morphine receptor (in words),morphine receptor,does not bind to the morphine receptor
same,analgesic activity (in words),[5]; in vivo,mild to moderately strong analgesic activity
same,inhibition of analgesic activity by naloxone (in words),[5]; naloxone,analgesic activity is not inhibited by naloxone
CN1CC[C@]23c4c5ccc(O)c4O[C@H]2[C@@H](O)C=C[C@H]3[C@H]1C5 [Morphine],ED50,Rat Hot Plate Assay; Rattus norvegicus,17 ± 3.6 mg/kg
same,Hot plate Duration of Action (time to reduce 1.5 times the hot plate ED50 to 40% inhibition),"Rat Hot Plate Assay; rat, p.o., dose 30 mg/kg",2.5 h
